The values that follow come from patent US20030153506A1, “Combination product comprising melagatran and factor VIIa inhibitor” (priority 2000, published 2003).

For test [1], the system named is Platelet poor plasma. In words: APTT clotting time in spiked platelet poor plasma, synergy model (Berenbaum). Format: biochemical, human. Particulars: for concentration of A required to reach the same APTT prolongation as that of the mixture (Ae): calculated from Eq 1; for concentration of B required to reach the same APTT prolongation as that of the mixture (Be): calculated from Eq 2. As for the experimental part: Human blood from healthy volunteers, both men and women, was collected in 50 mL conical plastic tubes containing 5 mL of 0.13 mol/L of buffered tri-sodium citrate. The blood was immediately chilled on ice and centrifuged at […] for 20 minutes. Platelet poor plasma was then divided into fractions of 10 mL each and “spiked” with melagatran (Compound A) or with the title compound of Example 1 above (Compound B) to a final concentration that prolonged APTT by approximately 20%, 40%, 60% and 100%, respectively.
APTT was determined as follows: 100 μL of pre-warmed APTT reagent (Stago Diagnostica) was added to 100 μL of pre-warmed plasma and incubated for 180 s at 37° C. Coagulation was initiated by the addition of 100 μL of CaCl2 (0.025 mol/L). The clotting time was measured with a KC 10 Coagulometer, coupled to a CR-A calculator, CR 10 printer and PR60 heat block (Amelung GmbH, Lemago Germany). Each clotting test was performed in duplicate and the mean clotting time was used.
APTT for Compound A and Compound B were tested at 4 different concentrations and the results are shown in Table 1, in which Cp A and Cp B are the plasma concentrations of Compounds A and B, respectively. APTT values are expressed in seconds and, within brackets, as percentage prolongation over the baseline value.
In order to test a possible synergistic effect between Compounds A and B the following model was used. The concentrations of Compounds A and B that caused about 20%, 40% and 60% prolongation of APTT were first determined (Table 1). Equipotent concentrations of Compounds A and B, e.g. 0.08 μmol/L of A and 1.5 μmol/L of B, were then mixed and APTT for the mixtures were determined as above. An indication of synergy is obtained if APTT for this mixture is longer than APTT for a “mixture” of equipotent concentrations of Compound A itself (i.e. Compound A+Compound A at a concentration that prolongs APTT by 20% (0.08 μmol/L+0.08 μmol/L=0.16 μmol/L)). However, a true synergistic effect between two compounds can never be established unless the dose response curves for both individual compounds are known and all data applied to the algebraic model of Berenbaum's equation (see Clin. Exp. Immunol. (1977) 28, 18): […]
(Cp A in mixture/Ae)+(Cp B in mixture/Be)<1
In this equation, CpA and CpB are the plasma concentrations of Compounds A and B, respectively in the mixture, and Ae and Be are individual concentrations of Compounds A and B that are required to obtain the same APTT results as that of the mixture. These concentrations can be calculated from the linear dose-responses for Compounds A and B, respectively (Equations 1 and 2).

In test [2] the test system is human plasma. In words: Test C: prothrombin time (PT) assay. Format: biochemical. Particulars: Thromborel S, doubling of the clotting time. As for the experimental part: Prothrombin Time (PT) Assay
The following reagents were prepared: An aliquot of a frozen human plasma pool, containing citrate as an anticoagulant, was rapidly thawed at 37° C. A 10 mM stock solution of the inhibitor in DMSO was diluted with saline containing 0.1% BSA to a final 1% of DMSO. Series dilutions were made in steps of 1:3 for a dose response titration. Thromborel® S from Dade Behring GmbH (Marburg, Germany), was reconstituted 1:10 with 25 mM CaCl2, according to the instructions of the manufacturer. 2.5μL of inhibitor was mixed with 22.5 μL human plasma, incubated for 1 min. at 37° C. in the cup of an Amelung KC10 microcoagulometer from Heinrich Amelung GmbH (Lemgo, Germany). Coagulation was initiated by addition of 50 μL Thromborel S, which was pre-warmed at 37° C. The time to clot was determined (CTI) for each inhibitor concentration ([I]) in duplo. A titration curve was made by plotting the inverse clotting time versus the inhibitor concentration. The IC50 value, the time to double the clotting time, was determined by non-linear regression to the equation:
CT0/CTI=1/(1+([I]/IC50)^S)
where “CT0”=the clotting time without inhibitor added, and “s” the slope.

Test [3] addresses T1, Recombinant human factor VIIa (Homo sapiens, UniProt P08709).
T1 construct: Recombinant human factor VIIa (rFVIIa, product no 407); purchased American Diagnostica Inc. product no 407 (rFVIIa); product no 4500 (rTF)
In words: Test A: chromogenic robot method for Factor VIIa. Format: biochemical. As to the method: Chromogenic Robot Method for Factor VIIa:
The chromogenic substrate Spectrozyme FVIIa, CH3SO2-D-CHA-But-Arg-pNA (pefachrome 5979 from Pentapharm, Switzerland) was purchased from American-Diagnostica Inc. (Greenwich, Conn., U.S.A.). The KM under the conditions of the assay was determined separately. Recombinant human factor VIIa (rFVIIa, product no 407) and non-lipidated recombinant human tissue-factor (rTF, product no 4500) were purchased from American Diagnostica Inc. The stock solutions of rFVIIa (1.08 mg protein dissolved with 1 mL water to 21.6 μM in 20 mM Tris-HCl, 100 mM NaCl, pH 7.4) and rTF (1 mg protein with 1.5 mL water to 19 μM in 50 mM Tris-HCl, pH 8.0, 150 mM NaCl, CHAPS (3-((3-cholamidopropyl)dimethylammoniol)-1-propanesulphonate; 10 mM) and 200 mM mannitol) were stored in 0.5 mL reagent tubes at −80° C. […] After mixing and incubation for 40 minutes at 37° C., the optical absorbance difference was read at 405 nm. The IC50 value for each compound was calculated by non-linear regression to the equation:
Where AI=the final absorbance at 405 nm in the presence of the inhibitor, A0=in the absence of inhibitor, and s the slope in the dose titration curve, which has the theoretical value of 1 for a pure competitive inhibitor. […]

The target of test [4] is T2, Human α-thrombin (Homo sapiens, UniProt P00734).
T2 construct: Human α-thrombin, Sigma Chemical Co. or Hematologic Technologies; purchased Sigma Chemical Co. or Hematologic Technologies
In words: Test B: thrombin inhibition, chromogenic robotic assay. Format: biochemical. The note with it: S-2366 0.30 mmol/L, 40 min 37° C. As for the experimental part: Determination of Thrombin Inhibition with a Chromogenic, Robotic Assay
Thrombin inhibitor potency was measured with a chromogenic substrate method, in a Plato 3300 robotic microplate processor (Rosys AG, CH-8634 Hombrechtikon, Switzerland), using 96-well, half volume microtitre plates (Costar, Cambridge, Mass., U.S.A.; Cat No 3690). Stock solutions of test substance in DMSO (72 μL), 0.1-1 mmol/L, were diluted serially 1:3 (24+48 μL) with DMSO to obtain ten different concentrations, which were analysed as samples in the assay. 2 μL of test sample was diluted with 124 μL assay buffer, 12 μL of chromogenic substrate solution (S-2366, Chromogenix, Mölndal, Sweden) in assay buffer and finally 12 μL of α-thrombin solution (Human α-thrombin, Sigma Chemical Co. or Hematologic Technologies) in assay buffer, were added, and the samples mixed. The final assay concentrations were: test substance 0.00068-13.3 μmol/L, S-2366 0.30 mmol/L, α-thrombin 0.020 NIHU/mL. The linear absorbance increment during 40 minutes incubation at 37° C. was used for calculation of percentage inhibition for the test samples, as compared to blanks without inhibitor. The IC50-robotic value, corresponding to the inhibitor concentration which causes 50% inhibition of the thrombin activity, was calculated from a log concentration vs. % inhibition curve.

Where [5] appears, read: mixture 0.08 (A) + 1.5 (B) μmol/L.
Where [6] appears, read: mixture 0.18 (A) + 3.2 (B) μmol/L.
Setting [7] is: mixture 0.27 (A) + 4.9 (B) μmol/L.

T1 sequence (P08709 213-466 limits assumed): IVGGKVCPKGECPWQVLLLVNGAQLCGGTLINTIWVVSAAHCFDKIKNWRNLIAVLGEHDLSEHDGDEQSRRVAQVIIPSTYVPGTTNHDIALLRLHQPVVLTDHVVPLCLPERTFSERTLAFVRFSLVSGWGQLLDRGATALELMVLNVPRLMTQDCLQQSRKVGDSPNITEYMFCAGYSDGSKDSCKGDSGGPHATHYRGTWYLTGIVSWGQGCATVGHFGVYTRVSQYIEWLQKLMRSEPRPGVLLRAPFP
T1 sequence (P08709 61-212 limits assumed): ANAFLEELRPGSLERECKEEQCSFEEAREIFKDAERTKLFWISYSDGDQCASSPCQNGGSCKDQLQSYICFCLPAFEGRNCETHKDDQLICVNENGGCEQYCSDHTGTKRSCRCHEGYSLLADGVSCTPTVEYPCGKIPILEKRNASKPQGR
T1 sequence (P13726 33-295 partner): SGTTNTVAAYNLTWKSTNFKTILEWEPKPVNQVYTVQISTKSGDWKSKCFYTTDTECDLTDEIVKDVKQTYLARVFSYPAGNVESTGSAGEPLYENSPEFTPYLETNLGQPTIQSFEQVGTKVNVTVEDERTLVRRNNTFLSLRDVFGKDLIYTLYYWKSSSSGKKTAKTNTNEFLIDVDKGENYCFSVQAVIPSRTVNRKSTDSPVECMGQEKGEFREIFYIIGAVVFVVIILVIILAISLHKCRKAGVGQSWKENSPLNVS

As to `N=C(N)c1ccc(CNC(=O)[C@@H]2CCN2C(=O)[C@H](NCC(=O)O)C2CCCCC2)cc1` [Compound A, HOOC—CH2—(R)Cgl-Aze-Pab-H], the APTT worked out at 51.8 s in test [1] (Compound A + A, 0.08 + 0.08 = 0.16 μmol/L); 62.4 s in test [1] (Compound A + A, 0.18 + 0.18 = 0.36 μmol/L); 71.9 s in test [1] (Compound A + A, 0.27 + 0.27 = 0.54 μmol/L); 45.8 s in test [1] (Cp A 0.08 μmol/L, baseline 36.8 s); 53.8 s in test [1] (Cp A 0.18 μmol/L, baseline 36.8 s); 59.2 s in test [1] (Cp A 0.27 μmol/L, baseline 36.8 s). The APTT in test [1] (Cp A 0.56 μmol/L, baseline 36.8 s) came to 72.1 s. In addition, the “APTT percentage prolongation over the baseline value” in test [1] (Cp A 0.08 μmol/L) is on record as 24%; in test [1] (Cp A 0.18 μmol/L) it was 46%; in test [1] (Cp A 0.27 μmol/L), 61%; in test [1] (Cp A 0.56 μmol/L), 96%. Further, the “concentration of A required to reach the same APTT prolongation as that of the mixture (Ae)” value in test [1] (setting [5]) is 0.21 µmol/L; in test [1] (setting [6]) it was 0.53 µmol/L; in test [1] (setting [7]), 0.83 µmol/L.
In the case of `CC(C)C[C@H](NC(=O)[C@H](NS(=O)(=O)Cc1cccc(C(=O)O)c1)C(C)C)C(=O)NCc1ccc(C(=N)N)cc1` [Example 1, N-[(3-Carboxybenzyl)sulfonyl]-D-valyl-N^1-{4-[amino(imino)methyl]-benzyl}-L-leucinamide], the IC50 is 3.8 µM in test [2]; 64 nM in test [3] (Test A, rFVIIa-rTF, Spectrozyme FVIIa 0.2 mM, 40 min 37° C.); 6.2 µM in test [4]. In addition, the “APTT percentage prolongation over the baseline value” in test [1] (Cp B 1.50 μmol/L) amounted to 26%; in test [1] (Cp B 3.20 μmol/L), 44%; in test [1] (Cp B 4.90 μmol/L), 62%; in test [1] (Cp B 8.30 μmol/L), 105%. Further, the APTT in test [1] (Cp B 1.50 μmol/L, baseline 35.7 s) was 45.2 s; in test [1] (Cp B 3.20 μmol/L, baseline 35.7 s) it was 51.5 s; in test [1] (Cp B 4.90 μmol/L, baseline 35.7 s), 57.7 s; in test [1] (Cp B 8.30 μmol/L, baseline 35.7 s), 73.3 s. Moreover, the “concentration of B required to reach the same APTT prolongation as that of the mixture (Be)” value in test [1] (setting [5]) was 3.87 µmol/L; in test [1] (setting [6]), 7.98 µmol/L; in test [1] (setting [7]), 11.80 µmol/L. The “selectivity for Factor VIIa” value in test [3] (conclusion from Tests A, B and C) is on record as “selective inhibitor of Factor VIIa”.
